Measured values as given in BindingDB's records for PubMed 10900230 (University of Michigan, 2000).

These molecules were tested against T1, Alpha-2A adrenergic receptor (Sus scrofa, UniProt P18871).
T1 sequence (P18871 whole entry): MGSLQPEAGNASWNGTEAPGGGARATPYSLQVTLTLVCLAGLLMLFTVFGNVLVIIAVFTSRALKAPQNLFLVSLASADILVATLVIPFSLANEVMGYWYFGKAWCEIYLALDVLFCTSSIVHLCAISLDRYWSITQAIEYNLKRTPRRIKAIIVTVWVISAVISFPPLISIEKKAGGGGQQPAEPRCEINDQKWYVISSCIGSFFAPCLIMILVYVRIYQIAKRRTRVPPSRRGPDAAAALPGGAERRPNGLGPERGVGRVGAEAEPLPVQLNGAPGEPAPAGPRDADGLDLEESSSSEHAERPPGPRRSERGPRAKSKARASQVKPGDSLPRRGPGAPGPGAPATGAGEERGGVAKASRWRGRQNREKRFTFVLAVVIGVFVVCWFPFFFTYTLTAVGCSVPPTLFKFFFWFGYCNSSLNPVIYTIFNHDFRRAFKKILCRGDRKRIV

First: Clc1cc(I)cc(Cl)c1N=C1NCCN1 [Iodoclonidine-p]
Second: Nc1cc(Cl)c(N=C2NCCN2)c(Cl)c1 [p-AMINOCLONIDINE]
The Ki of the first is 5.6-fold lower: 51.3 nM for the first, 288 nM for the second. The first binds more tightly here.

Compared with CCN1CCc2nc(N)oc2CC1 [NSC_169743], Cc1cc(C(C)(C)C)c(O)c(C)c1CC1=NCCN1 [SMR000059324] is lower in Ki: greater than 10000 nM for the first, 35.5 nM for the second.

Clc1cccc(Cl)c1N=C1NCCN1 [2-(2,6-dichloroanilino)-2-imidazoline] and NC(N)=NN=Cc1c(Cl)cccc1Cl [Guanabenz] are within 1.5-fold of each other in Ki: 85.1 nM for the first, 57.5 nM for the second.

Compared with Brc1c(NC2=NCCN2)ccc2nccnc12 [UK 14,304], Cc1cccc(C)c1N=C1NCCCS1 [(5,6-Dihydro-4H-[1,3]thiazin-2-yl)-(2,6-dimethyl-phenyl)-amine] is 6.6-fold higher in Ki: 479 nM for the first, 3160 nM for the second. The first binds more tightly here.

First: CNCC(O)c1ccc(O)c(O)c1 (stereo unspecified) [EPINEPHRINE]
Second: CC(C)NCC(O)c1ccc(O)c(O)c1 (stereo not drawn) [Isoproterenol,(+)]
The Ki of the first is lower: 646 nM for the first, greater than 10000 nM for the second.

Molecule NCC(O)c1ccc(O)c(O)c1 (stereo not drawn) [Noradrenaline,(+)] has a Ki of 5620 nM.
